Reference: PubChem BioAssay (NCI)
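Growth conditions: 96-well plates. Treatment: test compound, 48 hours, 5 concentrations. Analysis: linear interpolation between bracketing concentrations; unreached endpoints set to highest concentration. GI50: concentration for 50% inhibition of growth. Definition used: TGI = concentration required for complete inhibition of growth.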

Legend:
Test in all cases: inhibition of tumour cell growth, NCI panel, 48 h
[1] = test system: A549 NSCLC
[2] = test system: DU-145 prostate
[3] = test system: HCT-15 colon
[4] = test system: MALME-3M melanoma
[5] = test system: NCI-H23 lung
[6] = test system: OVCAR-3 ovarian
[7] = test system: SK-MEL-5 melanoma
[8] = test system: SN12C renal
[9] = test system: SNB-19 CNS
[10] = test system: TK-10 renal

SMILES | TGI [1] | TGI [2] | TGI [3] | TGI [4] | TGI [5] | TGI [6] | TGI [7] | TGI [8] | TGI [9] | TGI [10] | GI50 [1] | GI50 [2] | GI50 [3] | GI50 [4] | GI50 [5] | GI50 [6] | GI50 [7] | GI50 [8] | GI50 [9] | GI50 [10]
CCCCCC/C=C\CCCCCCCCCC1=CC(=O)C=C(OC)C1=O | 16.3 µM | 38 µM | 11.1 µM | 29.4 µM | 12 µM | 17.6 µM | 5.54 µM | 14.4 µM | 20.1 µM | 18.8 µM | – | – | – | – | – | – | – | – | – | –
Cn1c(=S)c2[nH]c(SCCN3CCCC3)nc2n(C)c1=O | > 100 µM | > 100 µM | > 100 µM | > 100 µM | > 100 µM | > 100 µM | > 100 µM | > 100 µM | > 100 µM | > 100 µM | – | – | – | – | – | – | – | – | – | –
CCCCn1sc(=O)n(Cc2ccc(CNC(=O)OCc3ccc4c(Br)cc(Br)c(O)c4n3)cc2)c1=O | > 100 µM | – | > 100 µM | > 100 µM | > 100 µM | 0.8 µM | 2.07 µM | > 100 µM | > 100 µM | > 100 µM | 3.76 µM | 0.4 µM | 0.468 µM | 0.831 µM | 0.7 µM | 0.292 µM | 0.55 µM | 0.53 µM | 2.66 µM | > 51.5 µM
O=C(NCCCCCCCCNC(=O)c1cccc2ccccc12)c1cccc2ccccc12 | > 100 µM | > 100 µM | > 100 µM | > 100 µM | > 79.6 µM | > 79.9 µM | > 100 µM | > 100 µM | > 59.5 µM | 43.3 µM | – | – | – | – | – | – | – | – | – | –
C#CCOc1cccc(Nc2ncnc3ccc(NC(=O)CCl)cc23)c1 | > 44 µM | 14.1 µM | 15.1 µM | 8.63 µM | 29.9 µM | 7.06 µM | 8.9 µM | > 79.8 µM | 81.9 µM | 18.1 µM | 0.225 µM | 0.73 µM | 0.0709 µM | 3.46 µM | 2.87 µM | 0.908 µM | 3.37 µM | 0.3 µM | 1.88 µM | 2.06 µM
O=[N+]([O-])c1ccc(Sc2c3ccccc3nc3ccccc23)nc1 | 43.7 µM | 14.3 µM | 12.1 µM | 6.09 µM | 19.8 µM | 11.2 µM | 30.7 µM | 29.6 µM | 40.5 µM | 6.84 µM | – | – | – | – | – | – | – | – | – | –
CCN1C(=O)N(c2ccccc2)C2NN=c3s/c(=C4\C(=O)N(C(C)C)c5ccccc54)c(=O)n3C21 (configuration not stated) | > 40.5 µM | > 29.4 µM | > 56.6 µM | > 100 µM | 28.2 µM | 3.1 µM | 15.5 µM | > 100 µM | > 100 µM | 49.5 µM | 1.43 µM | 1.41 µM | 0.733 µM | 1.57 µM | 1.47 µM | 0.886 µM | 1.04 µM | 1.86 µM | 2.1 µM | 4.84 µM
O=C1c2c(O)cc(O)cc2OC(c2ccc(O)cc2O)C1O (configuration not stated) | > 100 µM | > 100 µM | > 100 µM | > 100 µM | > 100 µM | > 100 µM | > 100 µM | > 100 µM | > 100 µM | > 100 µM | – | – | > 100 µM | > 100 µM | – | > 100 µM | > 100 µM | > 100 µM | > 100 µM | –
CCCSC1=NC2C(N(CC)C(=O)N2CC)N1/N=C/C=C/c1ccccc1[N+](=O)[O-] (configuration not stated) | > 100 µM | > 100 µM | > 100 µM | > 100 µM | > 100 µM | 14.9 µM | 10.3 µM | > 100 µM | > 100 µM | > 100 µM | 4.25 µM | 3.51 µM | 2.94 µM | 4.74 µM | 4.04 µM | 3.11 µM | 2.76 µM | 3.84 µM | 3.74 µM | 10 µM
O=C1CCc2c(sc3[nH]c(=S)n(Cc4ccccc4)c(=O)c23)C1 | > 100 µM | > 100 µM | 13.8 µM | > 100 µM | 8.6 µM | > 100 µM | 3.74 µM | > 100 µM | > 100 µM | > 100 µM | 3.29 µM | 5.06 µM | 2.78 µM | 4.53 µM | 2.79 µM | 3.72 µM | 1.86 µM | 3.25 µM | 3.93 µM | 4.51 µM
COc1cnc2c(c1)C(=O)c1c-2n(CCCN2CCCC2)c(=O)c2cc(F)ccc12 | 0.351 µM | 1.34 µM | 1.98 µM | 1.73 µM | 2.4 µM | 1.51 µM | 1.29 µM | 10 µM | 2.74 µM | 2.13 µM | 0.0936 µM | 0.211 µM | 0.283 µM | 0.452 µM | 0.331 µM | 0.307 µM | 0.309 µM | 0.214 µM | 0.24 µM | 0.46 µM
CCc1nc(Cl)nc(Cl)c1Cl | 9.56 µM | 23.1 µM | 1.88 µM | 1.57 µM | 5.9 µM | 2.08 µM | 7.71 µM | 6.69 µM | 11.3 µM | 21.2 µM | – | – | – | – | – | – | – | – | – | –
C=C(C)[C@@H]1CC[C@]2(COC3CCCCO3)CC[C@]3(C)[C@H](CC[C@@H]4[C@@]5(C)C=C(C=O)C(=O)C(C)(C)[C@@H]5CC[C@]43C)[C@@H]12 (some centres not stated) | 3.15 µM | 2.92 µM | 3.97 µM | 3.45 µM | 3.63 µM | 2.49 µM | 2.93 µM | 5.57 µM | 2.89 µM | 2.96 µM | 1.56 µM | 1.57 µM | 1.77 µM | 1.66 µM | 1.62 µM | 1.14 µM | 1.58 µM | 2.06 µM | 1.35 µM | 1.57 µM
O=C1/C(=C/c2ccccc2)CN(C(=O)OCc2ccccc2)C/C1=C\c1ccccc1 | > 46.4 µM | > 100 µM | 20.8 µM | > 46.4 µM | 32.6 µM | 10 µM | 30.7 µM | 22.7 µM | > 46.4 µM | > 46.2 µM | – | – | 4.01 µM | – | – | – | 3.44 µM | – | – | –
O=C(OCc1ccc2c(Cl)cc(Cl)c(O)c2n1)c1cc2ccccc2[nH]1 | 4.01 µM | 2.19 µM | 0.517 µM | 2.6 µM | 3.2 µM | 0.398 µM | 2.63 µM | 0.939 µM | 2.99 µM | 1.47 µM | 1.75 µM | 0.916 µM | 0.217 µM | 1.26 µM | 1.49 µM | 0.198 µM | 1.33 µM | 0.285 µM | 1.59 µM | 0.553 µM
